Source: ChEMBL document CHEMBL2057181 (Bioorg Med Chem Lett, 2012)

Key:
[1] = Inhibition of Haemonchus contortus phosphoethanolamine methyltransferase1-mediated conversion of phosphoethanolamine to phosphomonomethylethanolamine by radiochemical assay in presence of S-adenosylmethionine
[2] = biological target: Histamine N-methyltransferase (Homo sapiens, UniProt P50135); assay: Inhibition of histamine N-methyltransferase by radiochemical assay
[3] = Inhibition of Haemonchus contortus phosphoethanolamine methyltransferase2 conversion of phosphomonomethylethanolamine to phosphodimethylethanolamine by radiochemical assay in presence of S-adenosylmethionine
[4] = biological target: T1, Phosphoethanolamine N-methyltransferase (Plasmodium falciparum, UniProt Q8IDQ9); assay: Inhibition of Plasmodium falciparum phosphoethanolamine methyltransferase using phospethanolamine as substrate by radiochemical assay in presence of S-adenosylmethionine
T1 sequence (Q8IDQ9 whole entry): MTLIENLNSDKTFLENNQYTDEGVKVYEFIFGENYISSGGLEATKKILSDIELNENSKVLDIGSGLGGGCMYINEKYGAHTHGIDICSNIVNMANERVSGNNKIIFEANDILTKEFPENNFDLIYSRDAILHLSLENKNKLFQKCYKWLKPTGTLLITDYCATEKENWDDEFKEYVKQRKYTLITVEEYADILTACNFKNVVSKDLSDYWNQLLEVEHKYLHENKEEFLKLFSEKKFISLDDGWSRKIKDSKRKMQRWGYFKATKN

Histamine N-methyltransferase, sequence (P50135 whole entry): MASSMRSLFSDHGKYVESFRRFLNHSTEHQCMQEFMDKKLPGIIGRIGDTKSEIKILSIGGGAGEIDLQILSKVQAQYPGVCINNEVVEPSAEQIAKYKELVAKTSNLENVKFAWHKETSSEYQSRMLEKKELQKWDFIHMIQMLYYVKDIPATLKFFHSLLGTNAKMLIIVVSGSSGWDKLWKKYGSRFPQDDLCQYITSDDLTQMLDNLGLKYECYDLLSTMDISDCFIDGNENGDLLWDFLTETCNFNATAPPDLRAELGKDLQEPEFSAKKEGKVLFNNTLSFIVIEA

Structure (SMILES) | IC50 [1] | Ki [2] | IC50 [3] | IC50 [4]
CCN(CC)Cc1cc(Nc2ccnc3cc(Cl)ccc23)ccc1O | 3000 µM | 0.019 µM | 3000 µM | –
CCN(CC)CCCC(C)Nc1ccnc2cc(Cl)ccc12 (stereo not given) [CHLOROQUINE] | – | – | – | 554 µM
COc1cc(NC(C)CCCN)c2ncccc2c1 (stereo not given) [PRIMAQUINE] | – | – | – | 460 µM
